Where two headings read alike, the source gives them in different places.
Key:
skin graft = assay: pinch skin graft survival test procedure; assay type: in vivo, male BAB/c donors, male C3H(H-2K) recipients; conditions: 4 mg/kg of test compound; intraperitoneally or orally; untreated control 7.00 ± 0.00 days
Description: (§1) Immunosuppressive activity for a representative compound of this invention was evaluated in an in vitro standard pharmacological test procedure to measure lymphocyte proliferation (LAF) and in an in vivo standard pharmacological test procedure with evaluated the survival time of a pinch skin graft.
A representative compound of this invention was also evaluated in an in vivo test procedure designed to determine the survival time of pinch skin graft from male BAB/c donors transplanted to male C3 H(H-2K) recipients. The method is adapted from Billingham R. E. and Medawar P. B., J. Exp. Biol. 28:385-402, (1951). Briefly, a pinch skin graft from the donor was grafted on the dorsum of the recipient as a allograft, and an isograft was used as control in the same region. The recipients were treated with either varying concentrations of test compounds intraperitoneally or orally. Rapamycin was used as a test control. Untreated recipients serve as rejection control. The graft was monitored daily and observations were recorded until the graft became dry and formed a blackened scab. This was considered as the rejection day. The mean graft survival time (number of days±S.D.) of the drug treatment group was compared with the control group. […] Results are expressed as the mean survival time in days. Untreated (control) pinch skin grafts are usually rejected within 6-7 days. […]

thymocyte proliferation = assay: comitogen-induced thymocyte proliferation procedure (LAF); assay type: cell-based, BALB/c mice; conditions: for IC50: read-out: LAF IC50
Description: as §1
The comitogen-induced thymocyte proliferation procedure (LAF) was used as an […] measure of the immunosuppressive effects of representative compounds. Briefly, cells from the thymus of normal BALB/c mice are cultured for 72 hours with PHA and IL-1 and pulsed with tritiated thymidine during the last six hours. Cells are cultured with and without various concentrations of rapamycin, cyclosporin A, or test compound. Cells are harvested and incorporated radioactivity is determined. Inhibition of lymphoproliferation is assessed as percent change in counts per minute from non-drug treated controls. For each compound evaluated, rapamycin was also evaluated for the purpose of comparison. An IC50 was obtained for each test compound as well as for rapamycin. The results obtained for the representative compounds of this invention were also expressed as a ratio compared with rapamycin. A positive ratio indicates immunosuppressive activity. […] Calculation of the ratio is shown below. [formula]

[1] = alone or in combination with picibanil; cited from earlier work
Candida albicans = conditions: both in vitro and in vivo; cited from earlier work
adjuvant arthritis model = conditions: model for rheumatoid arthritis; cited from earlier work
[2] = tested on: experimental allergic encephalomyelitis model; conditions: model for multiple sclerosis; cited from earlier work
IgE-like antibodies = conditions: cited from earlier work

For “23,25-Deepoxy-23,25-(2-aminoethanethio)-rapamycin [Example 2]”, the “Skin Graft survival (days ± SD)” value (skin graft) was 9.00 ± 0.63 days, the “T cell proliferation inhibition” value (thymocyte proliferation; at 10 nM) was 77% and the “T cell proliferation inhibition” value (thymocyte proliferation; at 0.1 μM) was 96%. The “LAF ratio (compared with rapamycin)” value (thymocyte proliferation; ratio > 1: inhibits thymocyte proliferation to a greater extent than rapamycin) was 0.82 and the IC50 (thymocyte proliferation; thymocytes cultured 72 hours with PHA and IL-1, tritiated thymidine) was 5.1 nM.
In the case of `CO[C@H]1C[C@@H]2CC[C@@H](C)[C@@](O)(O2)C(=O)C(=O)N2CCCC[C@H]2C(=O)O[C@H]([C@H](C)C[C@@H]2CC[C@@H](O)[C@H](OC)C2)CC(=O)[C@H](C)/C=C(\C)[C@@H](O)[C@@H](OC)C(=O)[C@H](C)C[C@H](C)/C=C/C=C/C=C/1C` [Rapamycin], the antitumor activity [1] is listed as “antitumor activity”, the antifungal activity (Candida albicans) is listed as “antifungal activity, particularly against Candida albicans” and the “effect in adjuvant arthritis model” value (adjuvant arthritis model) is listed as “effective”. The “effect in experimental allergic encephalomyelitis model” value [2] was “effective”, the “Skin Graft survival (days ± SD)” value (skin graft) was 11.67 ± 0.63 days and the IC50 (thymocyte proliferation; Mus musculus, Thymocyte, 72 h) was 4.2 nM. The “inhibition of formation of IgE-like antibodies” value (IgE-like antibodies) was “effectively inhibited”.
